For one assay, the system named is MV-4-11 cells. Nature of the assay: AML cell viability assay (RealTime-Glo). The assay is classed as cell-based. To be noted: Homo sapiens, read-out: Cell viability classification.
For the next assay, the target named is CK1α (Homo sapiens, UniProt P48729+Q96SW2). Nature of the assay: CK1α degradation, flow cytometry in MV4-11 cells. The assay is classed as cell-based. More on the design: CK1α levels were determined in MV-4-11 cells using Jess (Protein Simple); host or cells: MV-4-11. Particulars: % reduction of CK1α compared to DMSO, MV4-11 cells at 316 nM for 16 hours, read-out: CK1α degradation classification. On the procedure:
MV-4-11 cells were obtained from ATCC and grown in IMDM supplemented with 10% FBS. The cells were maintained at 37° C. under 5% CO2.
Compounds of the present disclosure were added to cells (final DMSO concentration of 0.5%) and incubated for 16 hours. CK1α level was determined in MV4-11 cells using flow cytometry (Luminex, Guava EasyCyte Plus). Briefly, cells were prepared with sequential 10% formalin and 70% methanol fixation. […] GuavaSoft Incyte software was used to analyse the flow cytometry data. Protein levels relative to DMSO are calculated for CK1α.
The efficacy of CK1α degradation of other part of compounds of the present disclosure was determined by treating MV4-11 cells at […] (Final DMSO concentration of 0.5%) for 16 hours. Protein levels relative to DMSO are calculated for CK1α.
Protein levels relative to DMSO are calculated for CK1α.
For orientation: In flow cytometry, cells or beads pass a laser one at a time.

The mark [1] stands for this setting: MV4-11, IC50 class, MV-4-11 cells, RealTime-Glo after 44 hrs of treatment (TABLE 3).

The results in this text go back to patent US20250188069A1, “COMPOUNDS AND METHODS FOR DEGRADING CASEIN KINASE 1 ALPHA” (PIN THERAPEUTICS, INC., priority 2022, published 2025).

Where a name gives a salt, the structure may show the parent alone. Read-outs that look alike come from different tables or passages of the source.

Sequence of CK1α (P48729 whole entry): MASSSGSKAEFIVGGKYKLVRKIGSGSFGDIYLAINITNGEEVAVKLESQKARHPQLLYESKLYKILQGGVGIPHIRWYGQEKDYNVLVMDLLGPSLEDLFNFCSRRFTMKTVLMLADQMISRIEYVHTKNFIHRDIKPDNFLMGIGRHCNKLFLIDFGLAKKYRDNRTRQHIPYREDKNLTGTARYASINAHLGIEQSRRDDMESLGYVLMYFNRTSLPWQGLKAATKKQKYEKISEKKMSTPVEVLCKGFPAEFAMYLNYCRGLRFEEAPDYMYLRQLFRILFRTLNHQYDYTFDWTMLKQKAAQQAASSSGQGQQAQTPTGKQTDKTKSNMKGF
Sequence of CK1α (Q96SW2 whole entry): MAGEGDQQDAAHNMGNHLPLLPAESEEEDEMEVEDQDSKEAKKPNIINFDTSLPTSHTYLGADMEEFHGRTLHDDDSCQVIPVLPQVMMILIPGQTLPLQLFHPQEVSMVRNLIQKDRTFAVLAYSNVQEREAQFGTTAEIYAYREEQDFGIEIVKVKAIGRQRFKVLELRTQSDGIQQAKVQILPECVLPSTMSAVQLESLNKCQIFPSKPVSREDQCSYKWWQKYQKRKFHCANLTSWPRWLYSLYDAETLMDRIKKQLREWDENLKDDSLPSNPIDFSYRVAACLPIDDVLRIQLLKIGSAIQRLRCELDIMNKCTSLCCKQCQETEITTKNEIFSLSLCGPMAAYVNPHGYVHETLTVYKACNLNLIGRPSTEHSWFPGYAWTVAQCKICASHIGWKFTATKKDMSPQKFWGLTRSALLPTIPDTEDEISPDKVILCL
Sequence of CK1α (Q16531 whole entry partner): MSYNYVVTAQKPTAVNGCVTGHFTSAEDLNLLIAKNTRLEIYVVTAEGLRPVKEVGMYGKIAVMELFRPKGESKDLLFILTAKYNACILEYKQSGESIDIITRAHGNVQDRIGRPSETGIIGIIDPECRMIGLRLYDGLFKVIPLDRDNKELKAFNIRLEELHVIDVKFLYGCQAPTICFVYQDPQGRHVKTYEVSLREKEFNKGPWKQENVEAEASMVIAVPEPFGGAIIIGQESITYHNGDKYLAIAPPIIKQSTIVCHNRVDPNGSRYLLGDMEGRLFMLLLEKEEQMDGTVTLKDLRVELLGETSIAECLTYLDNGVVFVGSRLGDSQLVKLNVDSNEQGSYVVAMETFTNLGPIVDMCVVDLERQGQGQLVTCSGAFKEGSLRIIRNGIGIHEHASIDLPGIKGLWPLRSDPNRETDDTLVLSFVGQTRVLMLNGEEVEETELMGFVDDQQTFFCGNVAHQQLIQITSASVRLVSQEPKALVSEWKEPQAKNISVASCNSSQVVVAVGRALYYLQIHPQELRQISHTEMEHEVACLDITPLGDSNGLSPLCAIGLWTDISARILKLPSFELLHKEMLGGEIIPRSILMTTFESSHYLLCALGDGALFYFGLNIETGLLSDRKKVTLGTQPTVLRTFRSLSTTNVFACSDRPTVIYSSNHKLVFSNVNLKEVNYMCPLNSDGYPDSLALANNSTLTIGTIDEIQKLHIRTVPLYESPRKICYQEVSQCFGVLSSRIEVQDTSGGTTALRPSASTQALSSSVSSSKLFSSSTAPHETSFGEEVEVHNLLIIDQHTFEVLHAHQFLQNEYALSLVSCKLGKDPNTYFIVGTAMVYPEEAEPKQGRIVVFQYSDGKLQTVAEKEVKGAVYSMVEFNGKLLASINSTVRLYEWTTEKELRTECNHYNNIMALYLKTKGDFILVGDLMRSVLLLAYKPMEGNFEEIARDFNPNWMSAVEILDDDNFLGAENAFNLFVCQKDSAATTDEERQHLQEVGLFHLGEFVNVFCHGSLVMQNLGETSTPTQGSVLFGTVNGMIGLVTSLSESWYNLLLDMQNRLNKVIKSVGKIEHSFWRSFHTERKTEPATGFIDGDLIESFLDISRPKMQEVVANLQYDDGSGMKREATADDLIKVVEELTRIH

As for `NC[C@]1(O)CC[C@H](N(CCC2CC2)c2cccc3c2CN(C2CCC(=O)NC2=O)C3=O)CC1` (stereo partly drawn) [Compound 523, 3-(4-(((1r,4r)-4-(aminomethyl)-4-hydroxycyclohexyl)(2-cyclopropylethyl)amino)-1-oxoisoindolin-2-yl)piperidine-2,6-dione], the IC50 in the assay with MV-4-11 cells (setting [1]) was in the range of 0.1 to 1 µM. Also, at CK1α, the Dmax at 0.316 µM fell in the range of 50 to 75%.
As for `NC[C@]1(O)CC[C@H](N(CCCC(F)(F)F)c2cccc3c2CN(C2CCC(=O)NC2=O)C3=O)CC1` (stereo partly drawn) [Compound 530, 3-(4-(((1r,4r)-4-(aminomethyl)-4-hydroxycyclohexyl)(4,4,4-trifluorobutyl)amino)-1-oxoisoindolin-2-yl)piperidine-2,6-dione], the IC50 in the assay on MV-4-11 cells (setting [1]) is greater than 1 µM. Besides, the Dmax at 0.316 µM on CK1α is less than 50%.
Consider `CCCCCN(CCCCNCCC(C)C)c1cccc2c1CN(C1CCC(=O)NC1=O)C2=O` (stereo not drawn) [Compound 167, 3-(4-((4-(isopentylamino)butyl)(pentyl)amino)-1-oxoisoindolin-2-yl)piperidine-2,6-dione. HCl], for which the IC50 in the assay with MV-4-11 cells (setting [1]) was in the range of 0.1 to 1 µM. The Dmax at 0.316 µM at CK1α is greater than 75%.
On to `O=C1CCC(N2Cc3c(cccc3N(CCC3CC3)[C@H]3CC[C@H](NCC(F)F)CC3)C2=O)C(=O)N1` (stereo partly drawn) [Compound 539, 3-{4-[(2-cyclopropylethyl)[(1s,4s)-4-[(2,2-difluoroethyl)amino]cyclohexyl]amino]-1-oxo-3H-isoindol-2-yl}piperidine-2,6-dione], for which, in the assay with MV-4-11 cells (setting [1]), the IC50 is 0.1 to 1 µM. Further, the Dmax at 0.316 µM on CK1α was 50 to 75%.
The matching figures for `CC(=O)N[C@H]1CC[C@H](N(CCCCN)c2cccc3c2CN(C2CCC(=O)NC2=O)C3=O)CC1` (stereo partly drawn) [Compound 273, N-((1r,4r)-4-((4-aminobutyl)(2-(2,6-dioxopiperidin-3-yl)-1-oxoisoindolin-4-yl)amino)cyclohexyl)acetamide, 2HCl]: greater than 1 µM and 50 to 75%.
For the compound `CCCCCN(c1cccc2c1CN(C1CCC(=O)NC1=O)C2=O)[C@H]1CC[C@H](NCC2CC2)CC1` (stereo partly drawn) [Compound 313, 3-(4-(((1R,4R)-4-((cyclopropylmethyl)amino)cyclohexyl)(pentyl)amino)-1-oxoisoindolin-2-yl)piperidine-2,6-dione hydrochloride], the IC50 in the assay with MV-4-11 cells (setting [1]) was less than 0.1 µM. Further, the Dmax at 0.316 µM on CK1α was greater than 75%.
Take `CCCCCN(c1cccc2c1CN(C1CCC(=O)NC1=O)C2=O)[C@H]1CC[C@H](NCC(C)C)CC1` (stereo partly drawn) [Compound 311, 3-(4-(((1r,4r)-4-(isobutylamino)cyclohexyl)(pentyl)amino)-1-oxoisoindolin-2-yl)piperidine-2,6-dione, HCl]: in the assay on MV-4-11 cells (setting [1]), the IC50 is less than 0.1 µM. Further, at CK1α, the Dmax at 0.316 µM is greater than 75%.
Taken in the same sequence, the figures for `O=C1CCC(N2Cc3c(cccc3N(CCCC(F)(F)F)[C@H]3CC[C@H](NC4COC4)CC3)C2=O)C(=O)N1` (stereo partly drawn) [Compound 514, 3-(1-oxo-4-{[(1r,4r)-4-(oxetan-3-ylamino)cyclohexyl](4,4,4-trifluorobutyl)amino}-3H-isoindol-2-yl)piperidine-2,6-dione] were 0.1 to 1 µM and 50 to 75%.
Taken in the same sequence, the figures for `CCCCCN(c1cccc2c1CN(C1CCC(=O)NC1=O)C2=O)[C@@H]1CC[C@@H](CN)C1` (stereo partly drawn) [Compound 325, 3-(4-(((1R,3R)-3-(aminomethyl)cyclopentyl)(pentyl)amino)-1-oxoisoindolin-2-yl)piperidine-2,6-dione HCl salt] were less than 0.1 µM and greater than 75%.
Taken in the same sequence, the figures for `N[C@H]1CC[C@H](N(CC2CC2)c2cccc3c2CN(C2CCC(=O)NC2=O)C3=O)CC1` (stereo partly drawn) [Compound 235, 3-(4-(((1r,4r)-4-aminocyclohexyl)(cyclopropylmethyl)amino)-1-oxoisoindolin-2-yl)piperidine-2,6-dione hydrochloride] were less than 0.1 µM and greater than 75%.
As for `O=C1CCC(N2Cc3c(cccc3N(CCC3CC3)[C@H]3CC[C@@H](NC4CC(F)(F)C4)CC3)C2=O)C(=O)N1` (stereo partly drawn) [Compound 515A, 3-(4-((2-cyclopropylethyl)((1s,4s)-4-((3,3-difluorocyclobutyl)amino)cyclohexyl)amino)-1-oxoisoindolin-2-yl)piperidine-2,6-dione formate], in the assay with MV-4-11 cells (setting [1]), the IC50 lay within 0.1 to 1 µM. The Dmax at 0.316 µM on CK1α lay in the range of 50 to 75%.
Regarding `O=C1CCC(N2Cc3c(cccc3N(CC3CC3)[C@H]3CC[C@H](NC4COC4)CC3)C2=O)C(=O)N1` (stereo partly drawn) [Compound 534, 3-(4-((cyclopropylmethyl)((1r,4r)-4-(oxetan-3-ylamino)cyclohexyl)amino)-1-oxoisoindolin-2-yl)piperidine-2,6-dione], the IC50 in the assay on MV-4-11 cells (setting [1]) is less than 0.1 µM. Moreover, at CK1α, the Dmax at 0.316 µM is greater than 75%.
Taken in the same sequence, the figures for `CCCCCN(c1cccc2c1CN(C1CCC(=O)NC1=O)C2=O)[C@H]1CC[C@@H](C(N)=O)CC1` (stereo partly drawn) [Compound 307, (1S,4S)-4-((2-(2,6-dioxopiperidin-3-yl)-1-oxoisoindolin-4-yl)(pentyl)amino)cyclohexane-1-carboxamide] were less than 0.1 µM and greater than 75%.
The matching figures for `O=C1CCC(N2Cc3c(cccc3N(CC3CC3)[C@H]3CC[C@H](NC4CC(F)(F)C4)CC3)C2=O)C(=O)N1` (stereo partly drawn) [Compound 532, 3-(4-((cyclopropylmethyl)((lr,4r)-4-((3,3-difluorocyclobutyl)amino)cyclohexyl)amino)-1-oxoisoindolin-2-yl)piperidine-2,6-dione]: less than 0.1 µM and greater than 75%.
Take `CCCCCN(c1cccc2c1CN(C1CCC(=O)NC1=O)C2=O)[C@H]1CC[C@H](NCC)CC1` (stereo partly drawn) [Compound 309, 3-(4-(((1r,4r)-4-(ethylamino)cyclohexyl)(pentyl)amino)-1-oxoisoindolin-2-yl)piperidine-2,6-dione, HCl]: in the assay with MV-4-11 cells (setting [1]), the IC50 was less than 0.1 µM. For the same compound, the Dmax at 0.316 µM on CK1α is greater than 75%.
In the case of `N[C@H]1CC[C@H](N(CCC2CC2)c2cccc3c2CN(C2CCC(=O)NC2=O)C3=O)CC1` (stereo partly drawn) [Compound 237, 3-(4-(((1r,4r)-4-aminocyclohexyl)(2-cyclopropylethyl)amino)-1-oxoisoindolin-2-yl)piperidine-2,6-dione, HCl], the IC50 with MV-4-11 cells (setting [1]) is less than 0.1 µM. Further, the Dmax at 0.316 µM at CK1α is greater than 75%.
Turning to `C[C@@H](N[C@H]1CC[C@@H](N(CCC2CC2)c2cccc3c2CN(C2CCC(=O)NC2=O)C3=O)CC1)C(F)(F)F` (stereo partly drawn) [Compound 548A, 3-(4-((2-cyclopropylethyl)((1s,4s)-4-(((R)-1,1,1-trifluoropropan-2-yl)amino)cyclohexyl)amino)-1-oxoisoindolin-2-yl)piperidine-2,6-dione], in the assay on MV-4-11 cells (setting [1]), the IC50 was in the range of 0.1 to 1 µM. Also, on CK1α, the Dmax at 0.316 µM was 50 to 75%.
Turning to `N#CCCCN[C@H]1CC[C@H](N(CCC2CC2)c2cccc3c2CN(C2CCC(=O)NC2=O)C3=O)CC1` (stereo partly drawn) [Compound 543, 4-{[(1r,4r)-4-[(2-cyclopropylethyl)[2-(2,6-dioxopiperidin-3-yl)-1-oxo-3H-isoindol-4-yl]amino]cyclohexyl]amino}butanenitrile], the IC50 in the assay with MV-4-11 cells (setting [1]) is less than 0.1 µM. Further, the Dmax at 0.316 µM on CK1α was greater than 75%.
Regarding `N[C@H]1CC[C@H](N(CCN2CCNCC2)c2cccc3c2CN(C2CCC(=O)NC2=O)C3=O)CC1` (stereo partly drawn) [Compound 243, 3-(4-(((1r,4r)-4-aminocyclohexyl)(2-(piperazin-1-yl)ethyl)amino)-1-oxoisoindolin-2-yl)piperidine-2,6-dione, 3HCl], in the assay on MV-4-11 cells (setting [1]), the IC50 is greater than 1 µM. For the same compound, the Dmax at 0.316 µM on CK1α is less than 50%.
With `COC(C)(C)CN[C@H]1CC[C@@H](N(CCC2CC2)c2cccc3c2CN(C2CCC(=O)NC2=O)C3=O)CC1` (stereo partly drawn) [Compound 541A, 3-(4-((2-cyclopropylethyl)((1s,4s)-4-((2-methoxy-2-methylpropyl)amino)cyclohexyl)amino)-1-oxoisoindolin-2-yl)piperidine-2,6-dione], the IC50 with MV-4-11 cells (setting [1]) was in the range of 0.1 to 1 µM. On CK1α, the Dmax at 0.316 µM is 50 to 75%.
Take `CCCCCN(CCC1(CN)CCCCC1)c1cccc2c1CN(C1CCC(=O)NC1=O)C2=O` (stereo not drawn) [Compound 255, 3-(4-((2-(1-(aminomethyl)cyclohexyl)ethyl) (pentyl)amino)-1-oxoisoindolin-2-yl) piperidine-2,6-dione, Formic Acid]: the IC50 with MV-4-11 cells (setting [1]) lay within 0.1 to 1 µM. Moreover, the Dmax at 0.316 µM on CK1α was 50 to 75%.
The matching figures for `CCCCCN(c1cccc2c1CN(C1CCC(=O)NC1=O)C2=O)[C@H]1CC[C@H](NCCC)CC1` (stereo partly drawn) [Compound 312, 3-(1-oxo-4-(pentyl((1r,4r)-4-(propylamino)cyclohexyl)amino)isoindolin-2-yl)piperidine-2,6-dione, HCl]: less than 0.1 µM and greater than 75%.
Consider `O=C1CCC(N2Cc3c(cccc3N(CCC3CC3)[C@H]3CC[C@H](NC(CF)CF)CC3)C2=O)C(=O)N1` (stereo partly drawn) [Compound 540, 3-{4-[(2-cyclopropylethyl)[(1r,4r)-4-[(1,3-difluoropropan-2-yl)amino]cyclohexyl]amino]-1-oxo-3H-isoindol-2-yl}piperidine-2,6-dione], for which the IC50 in the assay on MV-4-11 cells (MV4-11, 44 h) lay within 0.1 to 1 µM. Moreover, the Dmax at 0.316 µM on CK1α was 50 to 75%.
For the compound `NC[C@@H]1CC[C@@H](N(CCC2CC2)c2cccc3c2CN(C2CCC(=O)NC2=O)C3=O)C1` (stereo partly drawn) [Compound 325A, 3-(4-(((1R,3R)-3-(aminomethyl)cyclopentyl)(2-cyclopropylethyl)amino)-1-oxoisoindolin-2-yl)piperidine-2,6-dione, HCl], in the assay on MV-4-11 cells (setting [1]), the IC50 was less than 0.1 µM. The Dmax at 0.316 µM on CK1α is greater than 75%.
